The results in this text go back to patent publication US12552790B2, “Positive modulators of the muscarinic acetylcholine receptor M4” (Vanderbilt University, priority 2023, dated 2026).

Read-outs that look alike come from different tables or passages of the source.

The target of this test is T1, hM4 (Homo sapiens, UniProt P08173).
T1 construct: expressed in transfected cells; host or cells: CHO cells stably expressing human M4 (G418 selection only)
T1 sequence (P08173 1-479): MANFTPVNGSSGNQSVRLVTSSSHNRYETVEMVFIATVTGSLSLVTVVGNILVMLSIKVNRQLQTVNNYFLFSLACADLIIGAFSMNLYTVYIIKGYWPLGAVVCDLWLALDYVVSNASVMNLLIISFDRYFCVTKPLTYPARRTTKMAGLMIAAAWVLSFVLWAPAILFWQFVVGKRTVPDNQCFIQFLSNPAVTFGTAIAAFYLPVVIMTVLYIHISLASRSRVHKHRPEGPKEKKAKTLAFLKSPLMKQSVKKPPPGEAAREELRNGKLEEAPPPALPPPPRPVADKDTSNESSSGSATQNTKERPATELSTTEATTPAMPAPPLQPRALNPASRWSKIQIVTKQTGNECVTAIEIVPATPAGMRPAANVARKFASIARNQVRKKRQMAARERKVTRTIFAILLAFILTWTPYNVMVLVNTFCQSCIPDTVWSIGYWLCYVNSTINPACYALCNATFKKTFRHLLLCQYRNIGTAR
Description: Cellular cAMP Gi HTRF assay in CHO cells, agonist and potentiator modes. In kind it is cell-based. From the text: Activation of the M4 receptor leads to the inhibition of cAMP production by coupling to Gi/o proteins. To measure the level of cAMP inhibition by M4 allosteric modulators, a Homogeneous Time-Resolved Fluorescence (HTRF®) cAMP assay was employed using CHO cells stably expressing human or rat M4 receptors. The HTRF cAMP assay is a Time-Resolved Resonance Energy Transfer (TR-FRET) competitive immunoassay. Endogenous intracellular cAMP generated by cells competes with Europium cryptate-labeled cAMP (Europium donor, emission […]) for the binding to a cAMP antibody labeled with d2 (d2-acceptor, emission […]). Thus, the fluorescence emission ratio (665 nm/620 nm) is inversely proportional to the cAMP amount in the cells. Compound-mediated M4 activation results in an increase in HTRF ratio (665 nm/620 nm), indicative of a decrease in intracellular cAMP level. To monitor agonist activity, compounds were added to the M4 cells in the presence of an EC80 concentration of forskolin (adenylyl cyclase activator) which induces a submaximal intracellular cAMP level. To assess potentiator activity, compounds were added to the M4 cells with an EC80 concentration of forskolin in the presence of an EC20 concentration of acetylcholine. This functional assay allows determination of the potency and efficacy of compounds directly activating or potentiating the Gi/o-coupled M4 receptor; representative data are shown in Table 3.
Functional agonist and potentiator activities of compounds were determined by measuring cAMP levels in Chinese Hamster Ovary (CHO) cells stably expressing human or rat M4 muscarinic receptors using an HTRF cAMP Gi/o kit. Cells were maintained in F12 medium containing 10% FBS, 20 mM HEPES, 1× Antibiotic/Antimycotic, and G418 (500 μg/ml) in 37° C. humidified incubators in the presence of 5% CO2. The day before assay, the cells were trypsinized and resuspended in plating medium (growth medium without G418). The cells were plated to white, solid, flat-bottomed, 384 well plates at densities of 4,000 and 6,000 cells/[…]/well, of human M4 and rat M4 cells, respectively. The cell plates were spun at 100×g for 1 min, then immediately placed in a 37° C. incubator in the presence of 5% CO2 overnight.
The next day, reagents were freshly diluted at a 2× concentration in assay buffer using F12 basal medium or stimulation buffer. All assay buffers contained 500 μM IBMX to block cAMP degradation. Activation of M4 by compounds was examined in cells stimulated with an EC80 concentration of forskolin to induce submaximal intracellular cAMP levels. Forskolin EC80 concentrations were determined from forskolin concentration response curves (CRCs) and ranged from 1.5 to 2.5 μM. Compounds (10 mM) were prepared in 100% DMSO and further serially diluted either 1:3 or 1:5 into a […] CRC in DMSO using a Bravo Liquid Handler in a 384 well microplate.
Agonist assay mode was used to assess the abilities of M4 compounds to directly activate M4 receptors in the absence of the agonist, acetylcholine. The 10-point serially diluted compounds, starting 30 μM as a final concentration, were transferred to a compound plate using an Echo plate reformat protocol. 2× assay buffer containing an EC80 concentration of forskolin concentration was added to the compound plate. Vehicle (1% DMSO) was added to the following control wells; baseline cAMP (no forskolin), forskolin max, and forskolin EC80. 10 μL/well of the prepared 2× assay buffer was immediately added to the cell plates using a Bravo 384 well tip liquid handler. The cell plates were immediately spun for 30 seconds at 100×g and incubated at 37° C. for 10 min with gentle shaking at 50 rpm. An acetylcholine CRC was also performed in the presence of an EC80 concentration of forskolin to determine the concentrations of acetylcholine inducing maximal (ECmax) and submaximal (EC20) cAMP inhibition in order to prepare for the subsequent potentiator mode assay. […]
Background: TR-FRET usually uses a lanthanide donor and a delayed reading to cut background.

[1] abbreviates: agonist mode, forskolin EC80, no acetylcholine.
Where [2] appears, read: agonist mode, forskolin EC80, no acetylcholine, read-out: hM4_cAMP Activity Agonist EC50.
The mark [3] stands for this setting: potentiator mode, forskolin EC80 plus ACh EC20.
[4] abbreviates: potentiator mode, forskolin EC80 plus ACh EC20, read-out: hM4_cAMP Activity PAM EC50.

One may read the EC50 as the concentration that produces a half-maximal response. `[2H]C1([2H])Oc2ccc(OC3CCN(c4nc5nn(C)c(=O)n5c(C)c4C)CC3)cc2OC1([2H])[2H]` [Compound A10, 7-(4-((2,3-dihydrobenzo[b][1,4]dioxin-6-yl-2,2,3,3-d4)oxy)piperidin-1-yl)-2,5,6-trimethyl-[1,2,4]triazolo[4,3-a]pyrimidin-3(2H)-one]: under setting [1], the “hM4_cAMP Activity Agonist % ACh Max” value is 105 % ACh Max. For the same compound, the 50% effective concentration (EC50) under setting [2] was 7 nM and the EC50 under setting [4] came out at 2 nM. The “hM4_cAMP Activity PAM % ACh Max” value under setting [3] stood at 82 % ACh Max.
For `[2H]C1([2H])Oc2ccc(OC3CCN(c4nc5c(cc4C)C(=O)NC5)CC3)cc2OC1([2H])[2H]` [Compound 3, 2-(4-((2,3-dihydrobenzo[b][1,4]dioxin-6-yl-2,2,3,3-d4)oxy)piperidin-1-yl)-3-methyl-6,7-dihydro-5H-pyrrolo[3,4-b]pyridin-5-one], under setting [1], the “hM4_cAMP Activity Agonist % ACh Max” value came to 106 % ACh Max. The EC50 runs as follows: under setting [2], 20 nM; under setting [4], 6 nM. Further, the “hM4_cAMP Activity PAM % ACh Max” value under setting [3] came out at 94 % ACh Max.
The like results for `[2H]C1([2H])Oc2ccc(OC3CCN(c4nc5nn(C)c(=O)n5cc4C)CC3)cc2OC1([2H])[2H]` [Compound A6, 7-(4-((2,3-dihydrobenzo[b][1,4]dioxin-6-yl-2,2,3,3-d4)oxy)piperidin-1-yl)-2,6-dimethyl-[1,2,4]triazolo[4,3-a]pyrimidin-3(2H)-one] were, in that order, 89 % ACh Max, 16 nM, 3 nM and 70 % ACh Max.
